{"source": "patent EP1145714A1", "about": "“DRUGS” (Takeda Chemical Industries, Ltd., priority 1998, dated 2000)", "system": "acute vomiting induced by a central emetic agent loperamide in dogs", "test": "Acute vomiting induced by loperamide in dogs", "format": "in vivo, beagle dogs", "conditions": "loperamide 1 mg/kg subcutaneous", "protocol": "3 male or female beagle dogs (7.7 to 12.7 kg) per one group were used. Loperamide was subcutaneously given at 1 mg/ml/kg. 2.5 hours prior to loperamide administration, a small amount of a feed was given to the animals. 30 minutes thereafter, predetermined doses of the compound No. 3 were orally given. Similarly, 0.5 % methyl cellulose solution was orally given to a control animal group under no fasting. Predetermined doses of naloxone and ondansetron were given intravenously and orally, respectively to the animals under fasting, 30 minutes prior to loperamide administration. The frequency of vomiting was counted, up to 3 hours after loperamide administration. The compound No. 3 was dissolved in 0.5 % methyl cellulose solution, for oral dosing at a ratio of 0.25 to 1 ml per 1 kg body weight. Additionally, naloxone was intravenously given in a solution at a concentration of 0.05 % w/v. An injection of ondansetron at a concentration of 0.2 % w/v was orally given. Still additionally, 0.5 % methyl cellulose solution was orally given at a ratio of 1 ml per 1 kg body weight. The data relating to the frequency of vomiting, the latency and the time period from the occurrence of vomiting to the termination thereof were statistically analyzed by the Dunnett test, with reference to the difference from the control group.\nThe vomiting suppression ratio was calculated by the following formula. [Frequency of retching or vomiting in control] - [Frequency of retching or vomiting in animals dosed with compound No. 3] / [frequency of retching or vomiting in control] x 100 (%) [formula]", "data": [{"smiles": "C=CCN1CC[C@]23c4c5ccc(O)c4O[C@H]2C(=O)CC[C@@]3(O)[C@H]1C5", "note": "[Naloxone, naloxone, reference compound]", "values": [{"measurement": "Vomiting suppression ratio", "setting": "0.5 mg/kg i.v.", "result": 93, "unit": "% b"}, {"measurement": "B: Frequency of vomiting (mean ± SD)", "setting": "0.5 mg/kg i.v., 3 hours", "result": "0.7 ± 0.7", "unit": "b"}, {"measurement": "C: Time period until first vomiting (minute; mean ± SD)", "setting": "0.5 mg/kg i.v., 3 hours", "result": "2.61± 0.39", "unit": "b minute"}, {"measurement": "D: Duration of vomiting (minute; mean ± SD)", "setting": "0.5 mg/kg i.v., 3 hours", "result": "0.01 ± 0.01", "unit": "b minute"}, {"measurement": "Number of dogs with vomiting/number of tested dogs", "setting": "0.5 mg/kg i.v., 3 hours", "result": "1/3"}, {"measurement": "Effect on vomiting (in words)", "setting": "0.5 mg/kg intravenous", "result": "almost completely suppressed"}]}]}
